Assays:
[1] = target: Angiopoietin-1 receptor (Homo sapiens) (UniProt Q02763); test: Inhibition of TIE2 using fluorescent labelled substrate at 5 uM by caliper method
[2] = target: Proto-oncogene tyrosine-protein kinase receptor Ret (Homo sapiens) (UniProt P07949); test: Inhibition of RET using fluorescent labelled substrate at 5 uM by caliper method
[3] = target: Insulin receptor (Homo sapiens) (UniProt P06213); test: Inhibition of INSR using fluorescent labelled substrate at 5 uM by caliper method
[4] = target: Macrophage colony-stimulating factor 1 receptor (Homo sapiens) (UniProt P07333); test: Inhibition of FMS using fluorescent labelled substrate at 5 uM by caliper method
[5] = target: Fibroblast growth factor receptor 1 (Homo sapiens) (UniProt P11362); test: Inhibition of FGFR1 using fluorescent labelled substrate at 5 uM by caliper method
[6] = target: Serine/threonine-protein kinase PAK 3 (Homo sapiens) (UniProt O75914); test: Inhibition of PAK3 using fluorescent labelled substrate at 5 uM by caliper method
[7] = target: T1, RAC-alpha serine/threonine-protein kinase (Homo sapiens, UniProt P31749); test: Inhibition of Akt1 in human AN3CA cells assessed as phosphorylation of Akt at S473 after 2 hrs by Western Blot analysis; assay type: cell-based, AN3-CA
[8] = target: RAC-beta serine/threonine-protein kinase (Homo sapiens, UniProt P31751); test: Inhibition of Akt2 (1 to 481) expressed in Sf9 cells using biotin-GRPRTSSFAEG as substrate after 20 mins by Alpha-screen assay
Cytochrome P450 1A2 = target: T2, Cytochrome P450 1A2 (Homo sapiens, UniProt P05177); test: Inhibition of CYP1A2 in human liver microsomes using phenacetin as substrate after 10 mins; assay type: ADME, Microsome
T2 sequence (P05177 whole entry): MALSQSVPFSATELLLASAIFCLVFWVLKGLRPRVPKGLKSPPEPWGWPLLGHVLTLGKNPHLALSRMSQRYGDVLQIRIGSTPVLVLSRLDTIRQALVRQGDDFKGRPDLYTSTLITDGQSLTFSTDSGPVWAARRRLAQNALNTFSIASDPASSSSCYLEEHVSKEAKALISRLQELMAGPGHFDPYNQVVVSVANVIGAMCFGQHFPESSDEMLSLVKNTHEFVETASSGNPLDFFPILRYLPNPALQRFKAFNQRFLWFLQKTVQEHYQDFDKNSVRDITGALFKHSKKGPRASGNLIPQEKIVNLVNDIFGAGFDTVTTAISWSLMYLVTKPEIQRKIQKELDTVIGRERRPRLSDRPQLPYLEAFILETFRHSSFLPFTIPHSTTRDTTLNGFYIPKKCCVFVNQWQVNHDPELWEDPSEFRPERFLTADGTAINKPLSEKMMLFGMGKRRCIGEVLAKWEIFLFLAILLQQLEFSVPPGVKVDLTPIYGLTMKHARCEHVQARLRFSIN

Cytochrome P450 2C19 = Cytochrome P450 2C19 (Homo sapiens, UniProt P33261); test: Inhibition of CYP2C19 in human liver microsomes using S-mephenytoin as substrate after 10 mins; assay type: ADME, Microsome
Cytochrome P450 2C8 = target: T3, Cytochrome P450 2C8 (Homo sapiens, UniProt P10632); test: Inhibition of CYP2C8 in human liver microsomes using paclitaxel as substrate after 10 mins; assay type: ADME, Microsome
T3 sequence (P10632 whole entry): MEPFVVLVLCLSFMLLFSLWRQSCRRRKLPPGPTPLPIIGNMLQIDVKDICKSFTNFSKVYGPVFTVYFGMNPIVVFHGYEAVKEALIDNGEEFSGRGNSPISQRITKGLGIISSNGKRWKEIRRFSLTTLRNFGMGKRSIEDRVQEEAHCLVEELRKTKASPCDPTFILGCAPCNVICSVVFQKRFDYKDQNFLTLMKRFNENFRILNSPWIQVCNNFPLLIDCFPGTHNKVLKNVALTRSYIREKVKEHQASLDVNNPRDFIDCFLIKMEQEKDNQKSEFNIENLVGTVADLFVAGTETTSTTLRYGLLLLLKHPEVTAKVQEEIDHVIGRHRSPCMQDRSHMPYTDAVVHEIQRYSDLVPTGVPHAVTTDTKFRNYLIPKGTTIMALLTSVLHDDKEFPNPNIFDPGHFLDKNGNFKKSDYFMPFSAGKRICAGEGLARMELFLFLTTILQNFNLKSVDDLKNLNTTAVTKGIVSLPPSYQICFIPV

Cytochrome P450 2D6 = Cytochrome P450 2D6 (Homo sapiens, UniProt P10635); test: Inhibition of CYP2D6 in human liver microsomes using bufuralol as substrate after 10 mins; assay type: ADME, Microsome
Cytochrome P450 3A4 = Cytochrome P450 3A4 (Homo sapiens, UniProt P08684); test: Inhibition of CYP3A4 in human liver microsomes using midazolam as substrate after 10 mins; assay type: ADME, Microsome
[9] = Half life in human liver microsomes at 1 uM by LC/MS/MS; assay type: ADME, Microsome
[10] = Half life in male CD1 mouse liver microsomes at 1 uM by LC/MS/MS; assay type: ADME, Microsome
[11] = target: Cyclin-dependent kinase 1/cyclin B1 (Homo sapiens) (UniProt P06493+P14635); test: Inhibition of CDK1/cyclinB using fluorescent labelled substrate at 5 uM by caliper method; assay type: protein-complex assay
[12] = target: Calcium/calmodulin-dependent protein kinase type II subunit delta (Homo sapiens) (UniProt Q13557); test: Inhibition of CAMK2delta using fluorescent labelled substrate at 5 uM by caliper method
[13] = target: Serine/threonine-protein kinase Sgk3 (Homo sapiens) (UniProt Q96BR1); test: Inhibition of SGK3 using fluorescent labelled substrate at 5 uM by caliper method
[14] = target: Serine/threonine-protein kinase Sgk2 (Homo sapiens) (UniProt Q9HBY8); test: Inhibition of SGK2 using fluorescent labelled substrate at 5 uM by caliper method
[15] = target: Serine/threonine-protein kinase Sgk1 (Homo sapiens) (UniProt O00141); test: Inhibition of SGK1 using fluorescent labelled substrate at 5 uM by caliper method
[16] = target: Ribosomal protein S6 kinase alpha-3 (Homo sapiens) (UniProt P51812); test: Inhibition of RSK2 using fluorescent labelled substrate at 5 uM by caliper method
[17] = target: Ribosomal protein S6 kinase alpha-1 (Homo sapiens) (UniProt Q15418); test: Inhibition of RSK1 using fluorescent labelled substrate at 5 uM by caliper method
[18] = target: cAMP-dependent protein kinase catalytic subunit PRKX (Homo sapiens) (UniProt P51817); test: Inhibition of PRKX using fluorescent labelled substrate at 5 uM by caliper method
[19] = target: Protein kinase C eta type (Homo sapiens) (UniProt P24723); test: Inhibition of PKCeta using fluorescent labelled substrate at 5 uM by caliper method
[20] = target: Ribosomal protein S6 kinase alpha-4 (Homo sapiens) (UniProt O75676); test: Inhibition of MSK2 using fluorescent labelled substrate at 5 uM by caliper method
[21] = target: T1, RAC-alpha serine/threonine-protein kinase; settings: Sf9
[22] = target: Ribosomal protein S6 kinase alpha-6 (Homo sapiens) (UniProt Q9UK32); test: Inhibition of RSK4 using fluorescent labelled substrate at 5 uM by caliper method

T1 sequence (P31749 whole entry): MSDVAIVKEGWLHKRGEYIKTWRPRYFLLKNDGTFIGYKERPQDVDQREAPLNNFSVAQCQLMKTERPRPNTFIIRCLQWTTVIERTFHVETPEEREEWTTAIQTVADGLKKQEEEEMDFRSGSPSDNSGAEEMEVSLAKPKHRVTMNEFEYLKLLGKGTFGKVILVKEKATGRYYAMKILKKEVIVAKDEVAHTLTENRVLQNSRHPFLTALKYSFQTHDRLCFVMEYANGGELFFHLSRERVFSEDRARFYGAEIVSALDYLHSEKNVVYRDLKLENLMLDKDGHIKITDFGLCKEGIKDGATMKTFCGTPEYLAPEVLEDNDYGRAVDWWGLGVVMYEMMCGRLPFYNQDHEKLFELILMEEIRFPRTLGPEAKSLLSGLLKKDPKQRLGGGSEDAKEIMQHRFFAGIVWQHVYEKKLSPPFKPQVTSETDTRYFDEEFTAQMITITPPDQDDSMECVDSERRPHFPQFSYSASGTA
Chain of Ribosomal protein S6 kinase alpha-3 (Homo sapiens) (P51812 whole entry): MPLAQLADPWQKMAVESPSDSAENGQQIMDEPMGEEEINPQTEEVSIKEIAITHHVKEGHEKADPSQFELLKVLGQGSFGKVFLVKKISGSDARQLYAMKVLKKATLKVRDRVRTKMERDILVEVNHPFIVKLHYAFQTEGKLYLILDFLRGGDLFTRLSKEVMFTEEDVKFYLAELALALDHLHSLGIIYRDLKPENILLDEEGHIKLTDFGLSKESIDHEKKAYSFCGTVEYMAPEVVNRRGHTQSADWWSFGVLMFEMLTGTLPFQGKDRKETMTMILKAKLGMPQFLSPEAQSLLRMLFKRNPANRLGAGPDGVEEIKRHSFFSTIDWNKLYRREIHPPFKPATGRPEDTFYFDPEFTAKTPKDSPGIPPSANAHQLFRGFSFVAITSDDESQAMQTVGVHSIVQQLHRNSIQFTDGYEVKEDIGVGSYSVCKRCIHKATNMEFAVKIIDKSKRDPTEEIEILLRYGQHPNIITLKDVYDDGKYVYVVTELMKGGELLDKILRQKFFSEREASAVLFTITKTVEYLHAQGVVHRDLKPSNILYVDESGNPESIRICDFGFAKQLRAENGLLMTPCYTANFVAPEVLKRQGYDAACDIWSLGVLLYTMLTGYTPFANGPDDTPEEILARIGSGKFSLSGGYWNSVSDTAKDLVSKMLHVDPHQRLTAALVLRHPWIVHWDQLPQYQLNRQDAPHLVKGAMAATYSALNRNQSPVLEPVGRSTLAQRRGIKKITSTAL
Chain of Serine/threonine-protein kinase Sgk1 (Homo sapiens) (O00141 whole entry): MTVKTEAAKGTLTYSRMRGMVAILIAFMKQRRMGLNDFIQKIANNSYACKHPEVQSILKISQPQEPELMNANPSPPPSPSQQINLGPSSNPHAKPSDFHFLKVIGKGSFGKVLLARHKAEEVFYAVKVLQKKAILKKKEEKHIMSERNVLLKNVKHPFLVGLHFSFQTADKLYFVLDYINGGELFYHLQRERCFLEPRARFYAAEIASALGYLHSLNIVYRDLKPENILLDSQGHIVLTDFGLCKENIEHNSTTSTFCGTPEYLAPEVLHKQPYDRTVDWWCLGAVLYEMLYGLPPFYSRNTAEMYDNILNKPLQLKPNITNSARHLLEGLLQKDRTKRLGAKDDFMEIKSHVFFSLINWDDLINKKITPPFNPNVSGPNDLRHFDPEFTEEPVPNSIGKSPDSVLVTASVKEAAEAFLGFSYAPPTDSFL
Chain of Cyclin-dependent kinase 1/cyclin B1 (Homo sapiens) (P06493 whole entry, looked up): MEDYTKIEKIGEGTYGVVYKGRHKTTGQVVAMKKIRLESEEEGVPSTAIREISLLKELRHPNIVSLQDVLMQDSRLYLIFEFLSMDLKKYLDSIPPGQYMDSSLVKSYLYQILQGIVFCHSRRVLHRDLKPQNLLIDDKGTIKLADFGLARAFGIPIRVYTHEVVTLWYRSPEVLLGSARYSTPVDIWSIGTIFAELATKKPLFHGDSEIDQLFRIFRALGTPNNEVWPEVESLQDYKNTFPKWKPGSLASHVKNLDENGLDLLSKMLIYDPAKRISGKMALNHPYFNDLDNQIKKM
Chain of Cyclin-dependent kinase 1/cyclin B1 (Homo sapiens) (P14635 whole entry, looked up): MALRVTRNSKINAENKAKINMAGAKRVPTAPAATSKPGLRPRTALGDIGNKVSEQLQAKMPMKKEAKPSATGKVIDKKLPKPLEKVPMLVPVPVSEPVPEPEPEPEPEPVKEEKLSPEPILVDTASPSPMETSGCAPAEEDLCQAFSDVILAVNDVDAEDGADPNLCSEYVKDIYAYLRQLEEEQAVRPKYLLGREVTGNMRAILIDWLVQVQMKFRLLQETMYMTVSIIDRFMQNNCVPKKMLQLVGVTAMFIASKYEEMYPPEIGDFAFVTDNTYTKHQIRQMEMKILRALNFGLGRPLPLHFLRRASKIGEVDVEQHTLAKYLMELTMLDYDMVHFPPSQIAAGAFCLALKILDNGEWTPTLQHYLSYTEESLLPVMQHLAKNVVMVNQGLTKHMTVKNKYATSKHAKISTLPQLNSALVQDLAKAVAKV
Chain of cAMP-dependent protein kinase catalytic subunit PRKX (Homo sapiens) (P51817 whole entry): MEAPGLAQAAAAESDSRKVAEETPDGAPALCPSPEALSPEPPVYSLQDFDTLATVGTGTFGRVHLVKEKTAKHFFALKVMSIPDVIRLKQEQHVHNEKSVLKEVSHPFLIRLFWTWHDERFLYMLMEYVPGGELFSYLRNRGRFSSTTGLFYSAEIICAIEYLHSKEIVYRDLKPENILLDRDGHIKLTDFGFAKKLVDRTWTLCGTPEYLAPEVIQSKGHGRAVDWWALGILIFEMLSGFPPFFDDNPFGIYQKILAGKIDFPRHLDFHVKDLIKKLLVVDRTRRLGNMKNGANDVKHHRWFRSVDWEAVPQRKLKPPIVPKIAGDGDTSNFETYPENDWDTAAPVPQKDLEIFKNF
Chain of Protein kinase C eta type (Homo sapiens) (P24723 whole entry): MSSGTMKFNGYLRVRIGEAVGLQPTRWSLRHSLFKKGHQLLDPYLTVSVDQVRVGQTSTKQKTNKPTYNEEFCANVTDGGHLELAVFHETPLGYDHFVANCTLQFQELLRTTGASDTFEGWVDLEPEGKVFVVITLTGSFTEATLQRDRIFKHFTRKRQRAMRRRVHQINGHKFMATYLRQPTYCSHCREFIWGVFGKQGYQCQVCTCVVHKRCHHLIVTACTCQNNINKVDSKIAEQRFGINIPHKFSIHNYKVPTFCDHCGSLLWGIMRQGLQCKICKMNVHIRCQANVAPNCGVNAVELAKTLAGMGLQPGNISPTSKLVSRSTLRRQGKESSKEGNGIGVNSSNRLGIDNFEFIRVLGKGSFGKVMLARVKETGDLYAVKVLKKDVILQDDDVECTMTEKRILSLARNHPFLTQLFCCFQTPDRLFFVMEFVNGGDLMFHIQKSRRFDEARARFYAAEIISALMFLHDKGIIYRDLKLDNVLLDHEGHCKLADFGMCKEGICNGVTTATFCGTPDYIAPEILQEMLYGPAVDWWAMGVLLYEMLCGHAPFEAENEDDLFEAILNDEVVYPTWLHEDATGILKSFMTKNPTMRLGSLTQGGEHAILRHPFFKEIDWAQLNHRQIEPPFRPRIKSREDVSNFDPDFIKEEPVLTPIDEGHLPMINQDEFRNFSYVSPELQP
Chain of Macrophage colony-stimulating factor 1 receptor (Homo sapiens) (P07333 whole entry): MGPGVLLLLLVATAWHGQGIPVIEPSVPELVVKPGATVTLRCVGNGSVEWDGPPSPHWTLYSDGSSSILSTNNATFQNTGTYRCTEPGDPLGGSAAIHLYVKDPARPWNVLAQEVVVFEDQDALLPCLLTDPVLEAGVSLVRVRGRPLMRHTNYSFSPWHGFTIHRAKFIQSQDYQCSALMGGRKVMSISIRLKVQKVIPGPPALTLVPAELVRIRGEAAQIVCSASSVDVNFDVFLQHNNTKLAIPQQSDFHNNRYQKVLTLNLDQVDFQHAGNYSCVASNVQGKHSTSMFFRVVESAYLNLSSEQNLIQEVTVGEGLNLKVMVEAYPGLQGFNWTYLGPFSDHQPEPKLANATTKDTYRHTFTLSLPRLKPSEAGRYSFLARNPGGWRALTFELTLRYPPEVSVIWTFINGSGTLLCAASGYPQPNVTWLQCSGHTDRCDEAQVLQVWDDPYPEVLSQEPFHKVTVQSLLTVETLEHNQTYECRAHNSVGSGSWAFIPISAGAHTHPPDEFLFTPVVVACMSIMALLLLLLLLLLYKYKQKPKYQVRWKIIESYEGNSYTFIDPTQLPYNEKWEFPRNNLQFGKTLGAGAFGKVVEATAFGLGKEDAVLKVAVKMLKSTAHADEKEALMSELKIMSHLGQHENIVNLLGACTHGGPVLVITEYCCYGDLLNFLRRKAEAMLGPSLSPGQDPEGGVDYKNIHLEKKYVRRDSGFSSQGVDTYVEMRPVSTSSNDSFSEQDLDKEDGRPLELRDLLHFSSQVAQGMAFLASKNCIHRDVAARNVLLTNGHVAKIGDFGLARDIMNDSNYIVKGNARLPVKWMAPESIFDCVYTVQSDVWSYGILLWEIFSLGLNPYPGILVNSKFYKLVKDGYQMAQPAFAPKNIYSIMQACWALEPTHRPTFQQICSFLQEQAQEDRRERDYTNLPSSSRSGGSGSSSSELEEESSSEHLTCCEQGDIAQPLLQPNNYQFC
Chain of Cytochrome P450 2C19 (P33261 whole entry): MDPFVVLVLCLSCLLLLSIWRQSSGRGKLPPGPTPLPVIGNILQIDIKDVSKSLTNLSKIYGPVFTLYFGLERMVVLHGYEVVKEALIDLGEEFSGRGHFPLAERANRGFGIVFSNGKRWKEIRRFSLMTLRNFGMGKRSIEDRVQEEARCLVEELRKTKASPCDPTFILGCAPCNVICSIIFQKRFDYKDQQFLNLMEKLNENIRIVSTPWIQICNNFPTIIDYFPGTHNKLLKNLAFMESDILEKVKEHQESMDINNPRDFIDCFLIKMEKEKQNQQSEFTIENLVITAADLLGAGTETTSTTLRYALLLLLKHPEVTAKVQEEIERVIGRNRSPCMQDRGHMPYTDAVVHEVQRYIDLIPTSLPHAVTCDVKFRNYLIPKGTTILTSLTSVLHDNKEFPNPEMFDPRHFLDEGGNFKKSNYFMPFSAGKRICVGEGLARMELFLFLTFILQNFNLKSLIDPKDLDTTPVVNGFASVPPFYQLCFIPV

Compound	inhibition [1] [%]	inhibition [2] [%]	inhibition [3] [%]	inhibition [4] [%]	inhibition [5] [%]	inhibition [6] [%]	IC50 [7] [µM]	IC50 [8] [µM]	IC50 (Cytochrome P450 1A2) [µM]	IC50 (Cytochrome P450 2C19) [µM]	IC50 (Cytochrome P450 2C8) [µM]	IC50 (Cytochrome P450 2D6) [µM]	IC50 (Cytochrome P450 3A4) [µM]	half-life at 1 µM [9] [h]	half-life at 1 µM [10] [h]	inhibition [11] [%]	inhibition [12] [%]	inhibition [13] [%]	inhibition [14] [%]	inhibition [15] [%]	also measured
Nc1ncccc1-c1nc2cccnc2n1-c1ccc(CC(=O)Nc2ccccc2)cc1	> 25	> 25	> 25	> 25	> 25	> 25	2.5	0.7	> 10	> 10	> 10	> 10	> 10	0.793	> 1	> 25	> 25	> 25	> 25	> 25	inhibition [16]: > 25%; inhibition [17]: > 25%; inhibition [18]: > 25%; inhibition [19]: > 25%; inhibition [20]: > 25%; ΔTm [21]: 6.7 °C; inhibition [22]: > 25%
Nc1ncccc1-c1nc2cccnc2n1-c1ccc(CNC(=O)c2ccccc2)cc1	> 25	> 25	> 25	> 25	> 25	> 25	5.6	0.66	> 10	> 10	> 10	> 10	> 10	1	> 1	> 25	> 25	> 25	> 25	> 25	inhibition [16]: > 25%; inhibition [17]: > 25%; inhibition [18]: > 25%; inhibition [19]: > 25%; inhibition [20]: > 25%; ΔTm [21]: 6.4 °C; inhibition [22]: > 25%
